Laboratory results published in ChEMBL document CHEMBL5360672, “Identification of Novel Dual-Target Estrogen Receptor α Degraders with Tubulin Inhibitory Activity for the Treatment of Endocrine-Resistant Breast Cancer” (J Med Chem, 2023).
Calls of active or inactive are those of the source. No cut-off for these calls is given here.

Columns and labels:
[1] = Antiproliferative activity against human Tamoxifen-resistant LCC2 cells assessed as inhibition of cell proliferation incubated for 72 hrs by CCK8 assay; format: functional, cell-based
[2] = tested on: T47D; experiment: Antiproliferative activity against human T47D cells harboring ERalpha D538G mutant assessed as inhibition of cell proliferation incubated for 72 hrs by CCK8 assay; format: functional, cell-based
[3] = tested on: T47D; experiment: Antiproliferative activity against human T47D cells harboring ERalpha Y537S mutant assessed as inhibition of cell proliferation incubated for 72 hrs by CCK8 assay; format: functional, cell-based
[4] = tested on: MDA-MB-231; experiment: Antiproliferative activity against ERalpha negative human MDA-MB-231 cells assessed as inhibition of cell proliferation incubated for 72 hrs by CCK8 assay; format: functional, cell-based; settings: MDA-MB-231, 72 h
[5] = target: T1, Estrogen receptor (Homo sapiens) (UniProt P03372); experiment: Binding affinity to human ERalpha assessed as relative binding affinity incubated under vibration for 1 min followed by 2 hrs incubation under dark condition by fluorescence polarization assay relative to estradiol; settings: time 121.0 min
T1 sequence (whole entry): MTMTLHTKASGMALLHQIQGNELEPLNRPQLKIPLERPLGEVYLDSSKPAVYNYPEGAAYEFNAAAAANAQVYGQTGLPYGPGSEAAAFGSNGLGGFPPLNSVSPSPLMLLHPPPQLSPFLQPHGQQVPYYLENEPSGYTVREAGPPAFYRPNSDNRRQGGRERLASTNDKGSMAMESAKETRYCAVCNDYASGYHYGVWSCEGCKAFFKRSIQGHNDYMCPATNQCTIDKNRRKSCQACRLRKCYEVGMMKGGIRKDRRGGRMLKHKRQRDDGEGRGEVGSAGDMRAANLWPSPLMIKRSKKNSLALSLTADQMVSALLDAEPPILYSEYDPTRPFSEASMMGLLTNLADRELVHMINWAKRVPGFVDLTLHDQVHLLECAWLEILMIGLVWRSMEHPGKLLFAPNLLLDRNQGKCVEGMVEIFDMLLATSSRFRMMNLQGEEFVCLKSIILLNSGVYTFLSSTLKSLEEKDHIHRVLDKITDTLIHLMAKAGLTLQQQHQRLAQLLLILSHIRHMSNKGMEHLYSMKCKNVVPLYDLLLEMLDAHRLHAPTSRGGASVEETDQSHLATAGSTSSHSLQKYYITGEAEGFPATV

[6] = target: Estrogen receptor beta (Homo sapiens) (UniProt Q92731); experiment: Binding affinity to human ERbeta assessed as relative binding affinity incubated under vibration for 1 min followed by 2 hrs incubation under dark condition by fluorescence polarization assay relative to estradiol; settings: time 121.0 min
Estrogen receptor beta (Homo sapiens), sequence (Q92731 whole entry): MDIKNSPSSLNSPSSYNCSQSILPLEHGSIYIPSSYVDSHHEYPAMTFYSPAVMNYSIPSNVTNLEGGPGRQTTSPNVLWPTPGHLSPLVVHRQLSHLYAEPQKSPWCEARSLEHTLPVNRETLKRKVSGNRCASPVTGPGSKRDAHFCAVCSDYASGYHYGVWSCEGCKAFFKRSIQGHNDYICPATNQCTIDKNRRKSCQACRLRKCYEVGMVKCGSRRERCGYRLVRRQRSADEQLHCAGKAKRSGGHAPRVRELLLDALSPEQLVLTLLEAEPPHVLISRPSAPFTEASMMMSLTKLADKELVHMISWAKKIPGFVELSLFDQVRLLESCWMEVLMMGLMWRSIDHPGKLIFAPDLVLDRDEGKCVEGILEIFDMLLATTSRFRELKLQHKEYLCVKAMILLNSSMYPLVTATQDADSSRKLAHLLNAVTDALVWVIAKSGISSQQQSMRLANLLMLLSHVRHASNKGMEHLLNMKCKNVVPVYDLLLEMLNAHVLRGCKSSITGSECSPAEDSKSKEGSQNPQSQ

[7] = species on record: Homo sapiens; experiment: Selectivity ratio of relative binding affinity for human ERalpha to relative binding affinity to human ERbeta
[8] = tested on: MCF7; experiment: Antiproliferative activity against ERalpha positive human MCF7 cells assessed as inhibition of cell proliferation incubated for 72 hrs by CCK8 assay; format: functional, cell-based; settings: MCF7, 72 h
[9] = tested on: T47D; experiment: Antiproliferative activity against ERalpha positive human T47D cells assessed as inhibition of cell proliferation incubated for 72 hrs by CCK8 assay; format: functional, cell-based
[10] = Cytotoxicity against human MCF-10A cells assessed as inhibition of cell proliferation incubated for 72 hrs by CCK8 assay; format: toxicity, cell-based
[11] = Selectivity index, ratio of IC50 for cytotoxicity against human MCF-10A cells to IC50 for antiproliferative activity against human MCF7 cells; format: toxicity, cell-based; settings: MCF-10A cells and MCF7 cells, read-out: Ratio IC50
[12] = target: T1, Estrogen receptor (Homo sapiens); experiment: Induction of ERalpha degradation in human MCF7 cells at 5 uM incubated for 24 hrs by Western blot analysis; format: cell-based
[13] = target: T1, Estrogen receptor (Homo sapiens); experiment: Induction of ERalpha degradation in human MCF7 cells at 5 uM incubated for 24 hrs by Western blot analysis relative to SeCN-OBHSA derivatives; format: cell-based
[14] = target: T1, Estrogen receptor (Homo sapiens); experiment: Induction of ERalpha degradation in human MCF7 cells incubated for 6 to 24 hrs by Western blot analysis; format: cell-based; settings: dose 0.5-5 µM, time 6-24 hrs
[15] = target: T1, Estrogen receptor (Homo sapiens); experiment: Induction of ERalpha degradation in human MCF7 cells at 1 uM incubated for 6 to 24 hrs by Western blot analysis; format: cell-based; settings: time 6-24 hrs
[16] = target: T1, Estrogen receptor (Homo sapiens); experiment: Induction of ERalpha degradation in human MCF7 cells at 5 uM incubated for 24 hrs in the presence of MG-132 by Western blot analysis; format: cell-based
[17] = target: T1, Estrogen receptor (Homo sapiens); experiment: Induction of ERalpha degradation in human Tamoxifen-resistant LCC2 cells at 0.5 uM incubated for 6 to 24 hrs by Western blot analysis; format: cell-based; settings: Tamoxifen-resistant LCC2 cell, time 6-24 hrs
[18] = tested on: Estrogen receptor (Homo sapiens), P03372 [D538G]; experiment: Induction of ERalpha degradation in human T47D cells harboring ERalpha D538G mutant at 0.5 to 5 uM incubated for 24 hrs by Western blot analysis; format: cell-based; settings: dose 0.5-5 µM
Estrogen receptor (Homo sapiens), P03372 [D538G], sequence (P03372 whole entry D538G): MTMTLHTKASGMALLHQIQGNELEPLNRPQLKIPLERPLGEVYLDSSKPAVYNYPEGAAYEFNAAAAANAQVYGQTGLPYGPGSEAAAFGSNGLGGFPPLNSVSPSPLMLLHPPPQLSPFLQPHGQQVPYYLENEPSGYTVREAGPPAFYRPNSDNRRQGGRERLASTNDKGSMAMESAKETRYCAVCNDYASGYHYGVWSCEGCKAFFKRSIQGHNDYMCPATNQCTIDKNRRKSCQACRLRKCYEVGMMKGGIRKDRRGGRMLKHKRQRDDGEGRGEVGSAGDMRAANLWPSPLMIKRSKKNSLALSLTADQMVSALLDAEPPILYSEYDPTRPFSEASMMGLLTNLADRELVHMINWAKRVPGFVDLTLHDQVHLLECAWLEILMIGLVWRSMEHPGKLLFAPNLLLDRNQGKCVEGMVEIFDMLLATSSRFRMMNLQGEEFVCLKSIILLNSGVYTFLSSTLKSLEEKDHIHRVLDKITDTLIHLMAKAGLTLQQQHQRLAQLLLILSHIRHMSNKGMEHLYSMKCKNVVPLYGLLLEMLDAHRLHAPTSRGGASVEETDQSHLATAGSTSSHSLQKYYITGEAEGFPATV

[19] = tested on: Estrogen receptor (Homo sapiens), P03372 [Y537S]; experiment: Induction of ERalpha degradation in human T47D cells harboring ERalpha Y537S mutant at 0.5 to 5 uM incubated for 24 hrs by Western blot analysis; format: cell-based; settings: dose 0.5-5 µM
Estrogen receptor (Homo sapiens), P03372 [Y537S], sequence (P03372 whole entry Y537S): as the sequence (P03372 whole entry D538G) above, with Y537S, G538D counted along it

[20] = target: T2, Tubulin (Homo sapiens) (UniProt P68371+Q9H4B7+P0DPH7+P68366+Q13509+Q71U36+P04350+Q3ZCM7+P07437+P68363+Q9BQE3+Q6PEY2+Q13885+Q9BVA1+Q9BUF5); experiment: Inhibition of tubulin polymerization (unknown origin) at 30 uM incubated for 60 mins by microplate reader analysis; format: protein-complex assay
[21] = target: T2, Tubulin (Homo sapiens); experiment: Disruption of microtubule network in human MCF7 cells assessed as ruptured microtubule network at 2 uM incubated for 48 hrs by DAPI staining based confocal laser scanning microscopic analysis; format: cell-based
[22] = target: T2, Tubulin (Homo sapiens); experiment: Disruption of microtubule network in human MCF7 cells assessed as chaotic microtubule network at 2 uM incubated for 48 hrs by DAPI staining based confocal laser scanning microscopic analysis; format: cell-based
[23] = target: T2, Tubulin (Homo sapiens); experiment: Disruption of microtubule network in human LCC2 cells assessed as ruptured microtubule network at 4 uM incubated for 48 hrs by DAPI staining based confocal laser scanning microscopic analysis; format: cell-based
[24] = target: T2, Tubulin (Homo sapiens); experiment: Disruption of microtubule network in human LCC2 cells assessed as chaotic microtubule network at 4 uM incubated for 48 hrs by DAPI staining based confocal laser scanning microscopic analysis; format: cell-based
[25] = tested on: MCF7; experiment: Antitumor activity against human MCF7 cells xenografted in Balb/c nude mouse assessed as reduction in Ki67 positive cells at 2 to 4 mg/kg, ip administered every other day for 20 days by immunohistochemistry analysis; format: functional, organism-based; settings: dose 2-4 mg/kg, time 20.0 day
[26] = Toxicity in Balb/c nude mouse xenografted with human MCF7 cells assessed as body weight loss at 2 to 4 mg/kg, ip administered every other day for 20 days; format: organism-based; settings: in vivo, 480 h, dose 2-4 mg/kg, time 20 day
[27] = tested on: Mus musculus; experiment: In vivo induction of ERalpha degradation in BALB/c nude mouse xenografted with human MCF7 cells assessed as decrease in ERalpha expression in tumor at 2 to 4 mg/kg, ip administered every other day for 20 days by Western blot analysis; format: functional, organism-based; settings: dose 2-4 mg/kg, time 20.0 day
[28] = Toxicity in Balb/c nude mouse xenografted with human MCF7 cells assessed as effect on heart morphology at 2 to 4 mg/kg, ip administered every other day for 20 days by H&E staining based analysis; format: organism-based; settings: in vivo, 480 h, dose 2-4 mg/kg, time 20 day
[29] = Toxicity in Balb/c nude mouse xenografted with human MCF7 cells assessed as effect on liver morphology at 2 to 4 mg/kg, ip administered every other day for 20 days by H&E staining based analysis; format: organism-based; settings: in vivo, 480 h, dose 2-4 mg/kg, time 20 day
[30] = Toxicity in Balb/c nude mouse xenografted with human MCF7 cells assessed as effect on kidney morphology at 2 to 4 mg/kg, ip administered every other day for 20 days by H&E staining based analysis; format: organism-based; settings: in vivo, 480 h, dose 2-4 mg/kg, time 20 day
[31] = tested on: MCF7; experiment: Antitumor activity against human MCF7 cells xenografted in Balb/c nude mouse assessed as tumor growth inhibition at 2 mg/kg, ip administered every other day for 20 days relative to control; format: functional; settings: MCF7, 480 h, time 20 day, read-out: TGI
[32] = tested on: MCF7; experiment: Antitumor activity against human MCF7 cells xenografted in Balb/c nude mouse assessed as tumor growth inhibition at 4 mg/kg, ip administered every other day for 20 days relative to control; format: functional; settings: MCF7, 480 h, time 20 day, read-out: TGI
[33] = Antitumor activity against human Tamoxifen-resistant LCC2 cells xenografted in Balb/c nude mouse assessed as tumor growth inhibition at 2 mg/kg, ip administered every other day for 20 days relative to control; format: functional; settings: Tamoxifen-resistant LCC2 cell, 480 h, time 20 day, read-out: TGI
[34] = tested on: Mus musculus; experiment: In vivo induction of ERalpha degradation in BALB/c nude mouse xenografted with human tamoxifen-resistant LCC2 cells assessed as decrease in ERalpha expression in tumor at 2 mg/kg, ip administered every other day for 20 days by Western blot analysis; format: functional, organism-based; settings: time 20.0 day
[35] = tested on: Tamoxifen-resistant LCC2 cell; experiment: Antitumor activity against human Tamoxifen-resistant LCC2 cells xenografted in Balb/c nude mouse assessed as reduction in Ki67 positive cells at 2 mg/kg, ip administered every other day for 20 days by immunohistochemistry analysis; format: functional, organism-based; settings: time 20.0 day

CC/C(=C(\c1ccc(O)cc1)c1ccc(OCCN(C)C)cc1)c1ccccc1 [AFIMOXIFENE]
IC50 [1]: 20.9 µM
IC50 [2]: 9.13 µM
IC50 [3]: 8.9 µM
IC50 [4]: 17.2 µM

CCN(c1ccccc1F)S(=O)(=O)C1CC2OC1C(c1ccc(NC(=O)CCCCC[Se]C#N)cc1)=C2c1ccc(O)cc1 (centres undefined)
RBA [5]: 7.26%
RBA [6]: 0.46%
Selectivity ratio [7]: 15.8
IC50 [8]: 0.09 µM
IC50 [9]: 2.82 µM
IC50 at 72 h [10]: 18.3 µM
selectivity ratio [11]: 203
IC50 [1]: 2.81 µM
IC50 [2]: 3 µM
IC50 [3]: 1.44 µM
IC50 [4]: 3.7 µM
Activity [12]: Active
Activity [13]: Active
Activity [14]: Dose-Dependent Effect
Activity [15]: Active
Activity [16]: inactive
Activity [17]: 100%
Activity [18]: Active
Activity [19]: Active
tubulin polymerization inhibition (active/not active) [20]: Active
Activity [21]: Active
Activity [22]: Active
Activity [23]: Active
Activity [24]: Active
Activity [25]: Active
Activity [26]: Non-Toxic
Activity [27]: Active
Activity [28]: Non-Toxic
Activity [29]: Non-Toxic
Activity [30]: Non-Toxic
inhibition in vivo at 2 mg/kg [31]: 69.1%
inhibition in vivo at 4 mg/kg [32]: 79.3%
inhibition in vivo at 2 mg/kg [33]: 56.9%
Activity [34]: Active
Activity [35]: Active

COc1ccc(N(CC(F)(F)F)S(=O)(=O)C2CC3OC2C(c2ccc(O)cc2)=C3c2ccc(O)cc2)cc1 (centres undefined)
RBA [5]: 0.76%
RBA [6]: 0.06%
Selectivity ratio [7]: 12.7
IC50 [8]: 0.23 µM
IC50 [9]: 6.92 µM
IC50 at 72 h [10]: 20.4 µM
selectivity ratio [11]: 88.6
IC50 [1]: 5.16 µM
IC50 [2]: 7.25 µM
IC50 [3]: 12.7 µM
tubulin polymerization inhibition (active/not active) [20]: inactive

N#C[Se]CCCCCC(=O)Nc1ccccc1
RBA [5]: 0.04%
RBA [6]: 0.01%
Selectivity ratio [7]: 7
IC50 [8]: 3.54 µM
IC50 [9]: 4.28 µM
IC50 at 72 h [10]: 2.26 µM
selectivity ratio [11]: 0.64
IC50 [4]: 0.36 µM
Activity [12]: inactive
tubulin polymerization inhibition (active/not active) [20]: Active

C[C@]12CC[C@@H]3c4ccc(O)cc4C[C@@H](CCCCCCCCC[S+]([O-])CCCC(F)(F)C(F)(F)F)[C@H]3[C@@H]1CC[C@@H]2O (some centres undefined) [FULVESTRANT]
IC50 [8]: 0.12 µM
IC50 at 72 h [10]: > 100 µM
IC50 [4]: > 100 µM
inhibition in vivo at 2 mg/kg [31]: 64.1%
inhibition in vivo at 2 mg/kg [33]: 45.8%

COc1ccc(N(CC(F)(F)F)S(=O)(=O)C2CC3OC2C(c2ccc(NC(=O)CCCCC[Se]C#N)cc2)=C3c2ccc(O)cc2)cc1 (centres undefined)
RBA [5]: 2.31%
RBA [6]: 0.05%
Selectivity ratio [7]: 46.2
IC50 [8]: 0.25 µM
IC50 [9]: 5.3 µM
IC50 at 72 h [10]: 36.7 µM
selectivity ratio [11]: 147
IC50 [1]: 3.73 µM
IC50 [2]: 3.96 µM
IC50 [3]: 3.06 µM
Activity [13]: Active

O=S(=O)(Oc1ccccc1)C1CC2OC1C(c1ccc(O)cc1)=C2c1ccc(O)cc1 (centres undefined)
IC50 [9]: > 31 µM
IC50 at 72 h [10]: > 60 µM
selectivity ratio [11]: > 4.11
IC50 [1]: 25 µM
IC50 [2]: > 31 µM
Activity [12]: inactive
tubulin polymerization inhibition (active/not active) [20]: inactive

CCN(c1ccc(F)cc1)S(=O)(=O)C1CC2OC1C(c1ccc(NC(=O)CCCCC[Se]C#N)cc1)=C2c1ccc(O)cc1 (centres undefined)
RBA [5]: 11.2%
RBA [6]: 0.07%
Selectivity ratio [7]: 159
IC50 [8]: 0.25 µM
IC50 [9]: 3.84 µM
IC50 at 72 h [10]: 18.1 µM
selectivity ratio [11]: 72.2
IC50 [1]: 2.64 µM
IC50 [2]: 2.43 µM
IC50 [3]: 2.74 µM
Activity [13]: Active
